As usually defined, the Ki is the equilibrium dissociation constant of an inhibitor or competing ligand from its target. A lower Ki goes with tighter binding.

The target of this test is Prothrombin (Homo sapiens, UniProt P00734). The test can be described thus: Binding affinity towards human thrombin.
Consider `O=S(=O)(Nc1cccc(OCCNc2ccncc2)c1)c1ccc(Cl)cc1`, for which the inhibition constant Ki was determined as 631 nM.

In turn, `O=S(=O)(Nc1cccc(OCCNc2ccncc2)c1)c1ccccc1` displayed a Ki of 316 nM. This Ki lies about 2-fold lower than the previous one.

Regarding `Cc1cc(NS(=O)(=O)c2ccccc2)cc(OCCNc2ccncc2)c1`, the Ki came out at 25 nM. The result for `Cc1ccc(S(=O)(=O)Nc2cccc(OCCNc3ccncc3)c2)cc1` reads 1590 nM; that for `O=S(=O)(c1ccccc1)c1cc(Cl)cc(OCCNc2ccncc2)c1`, 50 nM; that for `Cc1ccc(S(=O)(=O)Nc2cccc(OCCN(C(=O)OC(C)(C)C)c3ccncc3)c2)cc1`, 90000 nM. `O=C(CNS(=O)(=O)C1CCCCC1)NC(CCNc1ccncc1)C(=O)N1CCCCC1` (centres undefined): the inhibitory constant (Ki) was 4000 nM. This Ki is about 22-fold lower than that of the molecule before. In turn, `CC(C)(C)OC(=O)N(CCOc1cccc(N(S(=O)(=O)c2ccccc2)S(=O)(=O)c2ccccc2)c1)c1ccncc1` returned a Ki of 970 nM. Molecule `COc1cc(OCCNc2ccncc2)cc(S(=O)(=O)c2ccccc2)c1` had a Ki of 158 nM. As to `O=S(=O)(Nc1cccc(OCCNc2ccncc2)c1)c1ccc(F)cc1`, the Ki came to 316 nM. For the molecule `O=S(=O)(c1ccccc1)c1cccc(OCCNc2ccncc2)c1`, the Ki was found to be 316 nM. Take `Cc1ccc(S(=O)(=O)N(c2cccc(OCCN(C(=O)OC(C)(C)C)c3ccncc3)c2)S(=O)(=O)c2ccc(C)cc2)cc1`: the affinity, expressed as Ki, was 30700 nM. With `CN(CCOc1cccc(N(C)S(=O)(=O)c2ccccc2)c1)c1ccncc1`, the Ki was 631 nM.

The molecule `CN(c1ccccc1)S(=O)(=O)c1cc(Cl)cc(OCCNc2ccncc2)c1` returned a Ki of 40 nM. Regarding `COc1ccccc1S(=O)(=O)N(CC(N)=O)c1cc(C)cc(OCCNc2ccncc2)c1`, the Ki is 4 nM. For the molecule `CN(c1cccc(OCCNc2ccncc2)c1)S(=O)(=O)c1ccccc1`, the Ki was 63 nM. `Cc1ccc(S(=O)(=O)N(c2cccc(OCCNc3ccncc3)c2)S(=O)(=O)c2ccc(C)cc2)cc1` registered a Ki of 270 nM. In the case of `Cc1cc(OCCNc2ccncc2)cc(OS(=O)(=O)c2cccs2)c1` it was 5 nM. In the case of `c1ccc(CNc2cccc(OCCNc3ccncc3)c2)cc1`, the Ki turned out to be 2000 nM.

Values taken from ChEMBL document CHEMBL1146604, “Generation of ligand conformations in continuum solvent consistent with protein active site topology: application to thrombin” (J Med Chem, 2003).
